Experimental findings from patent US11655235B2, “Pyrrolidine and piperidine compounds” (YUHAN CORPORATION, priority 2019, dated 2023) are described below.

Common to all, as to type: biochemical
In assay [1] the target is T1, Recombinant human FAP (Homo sapiens, UniProt Q12884).
T1 construct: purchased R&D systems
T1 sequence (Q12884 1-760): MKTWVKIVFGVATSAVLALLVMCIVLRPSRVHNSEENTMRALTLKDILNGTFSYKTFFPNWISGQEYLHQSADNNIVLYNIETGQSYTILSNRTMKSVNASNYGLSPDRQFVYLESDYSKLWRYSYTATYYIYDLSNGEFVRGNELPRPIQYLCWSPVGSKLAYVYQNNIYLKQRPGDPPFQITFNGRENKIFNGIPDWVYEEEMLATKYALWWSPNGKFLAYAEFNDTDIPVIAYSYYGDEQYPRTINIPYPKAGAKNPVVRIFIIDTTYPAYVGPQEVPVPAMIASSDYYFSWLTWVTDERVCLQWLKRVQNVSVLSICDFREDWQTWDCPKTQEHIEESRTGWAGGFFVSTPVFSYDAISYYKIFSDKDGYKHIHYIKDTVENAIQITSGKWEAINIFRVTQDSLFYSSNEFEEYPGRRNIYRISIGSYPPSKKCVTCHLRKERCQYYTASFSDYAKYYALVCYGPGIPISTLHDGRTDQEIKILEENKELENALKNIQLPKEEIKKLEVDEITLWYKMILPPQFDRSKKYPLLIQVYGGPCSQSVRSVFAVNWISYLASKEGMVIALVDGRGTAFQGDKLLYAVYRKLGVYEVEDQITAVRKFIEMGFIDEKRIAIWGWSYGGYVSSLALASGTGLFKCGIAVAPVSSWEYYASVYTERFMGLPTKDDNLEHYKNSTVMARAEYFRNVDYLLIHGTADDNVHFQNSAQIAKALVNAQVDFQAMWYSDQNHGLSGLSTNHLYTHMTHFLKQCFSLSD
In words: FAP inhibition, fluorogenic substrate Z-Gly-Pro-AMC. To be noted: recombinant human FAP, substrate Z-Gly-Pro-AMC. In short, it runs like this: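 Eight-point compound dilutions (≤0.1% DMSO) were incubated at 25° C with 10 ng recombinant human FAP in Tris pH 7.5/1 M NaCl/BSA buffer and Z-Gly-Pro-AMC. Inhibition was taken as % drop in fluorescence rate (380/460 nm) against uninhibited control; IC50 came from a four-parameter logistic fit.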

The target of assay [2] is T1, Recombinant human FAP. Nature of the assay: FAP FRET assay, FGF21-sequence FRET peptide substrate. To be noted: FRET peptide with human FGF21 sequence, 6 μM, 37° C. The essentials:
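FRET peptide bearing human FGF21 sequence (6 μM final) cleaved by 10 ng recombinant human FAP at 37° C in HEPES pH 7.2 buffer with NaCl, BSA and EDTA, DMSO up to 0.1%. Signal-rate decrease versus uninhibited control fitted to a four-variable logistic model for IC50.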

Another assay has as its target DPP4 (Homo sapiens, UniProt P27487). Nature of the assay: DPP4 inhibition, fluorogenic substrate H-Gly-Pro-AMC. Further details: purchased R&D Systems. To be noted: recombinant human DPP4.
The target of the next assay is T2, recombinant human DPP7 (Homo sapiens, UniProt Q9UHL4).
T2 construct: purchased R&D Systems
Nature of the assay: DPP7 inhibition, fluorogenic substrate Lys-Pro-AMC. To be noted: recombinant human DPP7. How it is done: The compounds according to the present technology were evaluated in terms of the inhibitory effect on the activity of dipeptidyl peptidases including FAP by using a substrate producing fluorescent substances upon enzymatic decomposition. The test was conducted at 25° C. to get a final reaction volume of 100 μL in a 96 black well plate. […] Briefly, the test compounds were dissolved in dimethyl sulfoxide (DMSO) at a concentration of 20 mM and then subjected to serial dilution, thereby creating an 8 point curve. As for the control group, a 6 point curve created by serial dilution of Talabostat in the same buffer solution was used. Fluorescence intensity was measured using a microplate reader (Flexstation3, Molecular Devices) under the wavelength condition exciting at 380 nm and reading the emission at 460 nm. The inhibitory effect of the test compounds was measured as a decrease (%) in the signal rate as compared to the control group without any inhibitor. Data was fixed to a logistic model with four variables and IC50 value was calculated using GraphPad Prism program. As for recombinant human DPP4 (R&D Systems), 25 mM tris (pH 8.0) buffer as a buffer solution and H-Gly-Pro-AMC (Bachem) as a substrate were used. As for recombinant human DPP7 (R&D Systems), 25 mM MES (pH 6.0) buffer as a buffer solution and Lys-Pro-AMC (Bachem) as a substrate were used. As for recombinant human DPP8 (PBS Bioscience), as a buffer solution, a 10 mM tris (pH 7.4) buffer comprising 10 mM of magnesium chloride and 0.05% of Tween 20, and Z-Ala-Pro-AMC (BPS Bioscience) as a substrate were used. As for recombinant human DPP9 (R&D Systems), a 25 mM tris (pH 8.0) buffer as a buffer solution and H-Gly-Pro-AMC (Bachem) as a substrate were used. As for recombinant human PREP (R&D System), as a buffer solution, a 25 mM tris (pH 7.5) buffer comprising 250 mM sodium chloride and 2.5 mM DTT (Dithiolthreitol), and Z-Gly-Pro-AMC (Bachem) as a substrate were used. The evaluation was made by using 10 ng of DPP4, PDD7, and PREP, 20 ng of DPP8, and 50 ng of DPP9 based on the final reaction. In the evaluation of DPP4, the test compounds were subjected to serial dilution in a buffer under the condition containing up to 0.1% of DMSO. In the evaluation of DPP7, DPP8, DPP9, and PREP, the test compounds were subjected to serial dilution in each buffer under the condition containing up to 0.5% of DMSO.

Where only a bound is given, the exact number is not on record here.

DPP4, sequence (P27487 whole entry): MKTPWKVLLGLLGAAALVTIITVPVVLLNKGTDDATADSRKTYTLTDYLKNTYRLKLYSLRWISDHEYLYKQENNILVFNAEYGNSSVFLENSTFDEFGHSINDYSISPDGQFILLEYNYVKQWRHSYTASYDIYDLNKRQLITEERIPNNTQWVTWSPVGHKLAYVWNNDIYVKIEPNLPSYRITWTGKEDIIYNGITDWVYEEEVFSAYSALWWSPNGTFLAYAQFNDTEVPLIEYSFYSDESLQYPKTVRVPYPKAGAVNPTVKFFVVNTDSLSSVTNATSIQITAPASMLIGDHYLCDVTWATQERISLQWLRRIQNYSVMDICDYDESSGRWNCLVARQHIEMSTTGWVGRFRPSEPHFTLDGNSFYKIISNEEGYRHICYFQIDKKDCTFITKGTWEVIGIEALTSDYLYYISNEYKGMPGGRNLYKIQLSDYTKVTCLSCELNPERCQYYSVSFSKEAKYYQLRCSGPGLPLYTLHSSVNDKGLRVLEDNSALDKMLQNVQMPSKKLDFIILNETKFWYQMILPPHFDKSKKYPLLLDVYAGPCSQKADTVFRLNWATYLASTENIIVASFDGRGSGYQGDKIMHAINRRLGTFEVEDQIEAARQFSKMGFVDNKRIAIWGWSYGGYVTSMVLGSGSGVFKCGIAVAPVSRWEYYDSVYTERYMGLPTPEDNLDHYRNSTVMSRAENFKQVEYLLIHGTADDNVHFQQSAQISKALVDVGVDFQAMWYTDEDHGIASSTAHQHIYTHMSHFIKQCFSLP

For the compound `N#Cc1ccc2c(OC3CCN(CC(=O)N4C[C@@H](F)C[C@H]4C#N)CC3)cccc2n1` [Example 417, 5-[[1-[2-oxo-2-[(2S,4S)-2-cyano-4-fluoro-pyrrolidin-1-yl]ethyl]-4-piperidyl]oxy]quinoline-2-carbonitrile], the IC50 (in general, the concentration that gives 50% inhibition) on Recombinant human FAP [1] stood at 3.3 nM; at Recombinant human FAP [2], 6.5 nM; on DPP4, 5470 nM.
With `N#C[C@@H]1C[C@H](F)CN1C(=O)CN1CC[C@H](Nc2ccc(C(=O)Nc3ccccc3)c3ncccc23)C1` [Example 283, N-phenyl-5-[[(3S)-1-[2-oxo-2-[(2S,4S)-2-cyano-4-fluoro-pyrrolidin-1-yl]ethyl]pyrrolidin-3-yl]amino]quinoline-8-carboxamide], the figures for the IC50 at recombinant human DPP7, at Recombinant human FAP [2] and at DPP4 were 74.3 nM, 1 nM and 1210 nM, respectively.
On the same counts, the results for `N#C[C@@H]1CCCN1C(=O)CN1CCC(Oc2ccc(Cl)c3ncccc23)CC1` [Example 431, (2S)-1-[2-[4-[(8-chloro-5-quinolyl)oxy]-1-piperidyl]acetyl]pyrrolidine-2-carbonitrile] are 6340 nM, 12.2 nM and 19300 nM.
As for `N#C[C@@H]1CCCN1C(=O)CN1CCC(Oc2cccc3ncc(F)cc23)CC1` [Example 429, (2S)-1-[2-[4-[(3-fluoro-5-quinolyl)oxy]-1-piperidyl]acetyl]pyrrolidine-2-carbonitrile], the IC50 on recombinant human DPP7 amounted to 3970 nM; at Recombinant human FAP [2], 6.9 nM; on DPP4 it was 37200 nM.
As for `N#C[C@@H]1C[C@H](F)CN1C(=O)CN1CCC(Nc2ccc(F)c3ncccc23)CC1` [Example 330, (2S,4S)-4-fluoro-1-[2-[4-[(8-fluoro-5-quinolyl)amino]-1-piperidyl]acetyl]pyrrolidine-2-carbonitrile], the IC50 at Recombinant human FAP [1] is 2.8 nM; on Recombinant human FAP [2], 6.3 nM; at DPP4 it was 3290 nM.
With `N#C[C@@H]1C[C@H](F)CN1C(=O)CN1CC[C@@H](Nc2ccc(F)c3ncccc23)C1` [Example 175, (2S,4S)-4-fluoro-1-[2-[(3R)-3-[(8-fluoro-5-quinolyl)amino]pyrrolidin-1-yl]acetyl]pyrrolidine-2-carbonitrile], the IC50 at recombinant human DPP7 worked out at 4240 nM; at Recombinant human FAP [2], 3.5 nM; on DPP4 it was 1690 nM.
Turning to `N#C[C@@H]1C[C@H](F)CN1C(=O)CN1CCC(Nc2ccnc3c(Cl)cccc23)CC1` [Example 344, (2S,4S)-1-[2-[4-[(8-chloro-4-quinolyl)amino]-1-piperidyl]acetyl]-4-fluoro-pyrrolidine-2-carbonitrile], the values for the IC50 at recombinant human DPP7, at Recombinant human FAP [2] and on DPP4 were 4610 nM, 6 nM and no less than 100000 nM, respectively.
The matching figures for `N#C[C@@H]1C[C@H](F)CN1C(=O)CN1CC[C@@H](Nc2cnc3ncccc3c2)C1` [Example 171, (2S,4S)-4-fluoro-1-[2-[(3R)-3-(1,8-naphthyridin-3-ylamino)pyrrolidin-1-yl]acetyl]pyrrolidine-2-carbonitrile]: 2790 nM, 8.2 nM and 2190 nM.
Turning to `COc1ccc(N[C@H]2CCN(CC(=O)N3CCC[C@H]3C#N)C2)c2cccnc12` [Example 243, (2S)-1-[2-[(3S)-3-[(8-methoxy-5-quinolyl)amino]pyrrolidin-1-yl]acetyl]pyrrolidine-2-carbonitrile], the IC50 was 2.6 nM on Recombinant human FAP [1], 3240 nM on recombinant human DPP7, 4 nM at Recombinant human FAP [2] and 16900 nM at DPP4.
Turning to `N#C[C@@H]1CCCN1C(=O)CN1CC[C@@H](Nc2cccc3ncc(F)cc23)C1` [Example 209, (2S)-1-[2-[(3R)-3-[(3-fluoro-5-quinolyl)amino]pyrrolidin-1-yl]acetyl]pyrrolidine-2-carbonitrile], the IC50 at recombinant human DPP7 worked out at 7010 nM; on Recombinant human FAP [2], 1.7 nM; on DPP4, 4430 nM.
As to `Cc1ccc(NC2CCN(CC(=O)N3C[C@@H](F)C[C@H]3C#N)CC2)c2cccnc12` [Example 331, (2S,4S)-4-fluoro-1-[2-[4-[(8-methyl-5-quinolyl)amino]-1-piperidyl]acetyl]pyrrolidine-2-carbonitrile], the results for the IC50 on Recombinant human FAP [1], on Recombinant human FAP [2] and at DPP4 were 3.8 nM, 6.5 nM and 5110 nM, respectively.
Consider `N#C[C@@H]1C[C@H](F)CN1C(=O)CN1CC[C@H](Nc2ccc(C(=O)Nc3ccccn3)c3ncccc23)C1` [Example 294, N-(2-pyridyl)-5-[[(3S)-1-[2-oxo-2-[(2S,4S)-2-cyano-4-fluoro-pyrrolidin-1-yl]ethyl]pyrrolidin-3-yl]amino]quinoline-8-carboxamide], for which the IC50 at recombinant human DPP7 was found to be 16.6 nM; at Recombinant human FAP [2], 0.6 nM; on DPP4, 439 nM.
Regarding `N#C[C@@H]1CCCN1C(=O)CN1CC[C@H](Nc2ccc(C(=O)Nc3ccccc3)c3ncccc23)C1` [Example 287, N-phenyl-5-[[(3S)-1-[2-oxo-2-[(2S)-2-cyanopyrrolidin-1-yl]ethyl]pyrrolidin-3-yl]amino]quinoline-8-carboxamide], the IC50 was determined as 904 nM at recombinant human DPP7, 1.2 nM at Recombinant human FAP [2] and 7580 nM at DPP4.
As to `N#C[C@@H]1CCCN1C(=O)CN1CC[C@H](Nc2cccc3ncc(F)cc23)C1` [Example 234, (2S)-1-[2-[(3S)-3-[(3-fluoro-5-quinolyl)amino]pyrrolidin-1-yl]acetyl]pyrrolidine-2-carbonitrile], the IC50 is 1.3 nM at Recombinant human FAP [1], 6080 nM at recombinant human DPP7, 1.6 nM on Recombinant human FAP [2] and 63600 nM at DPP4.
`N#C[C@@H]1C[C@H](F)CN1C(=O)CN1CCC(Oc2ccnc3c(F)cccc23)CC1` [Example 435, (2S,4S)-4-fluoro-1-[2-[4-[(8-fluoro-4-quinolyl)oxy]-1-piperidyl]acetyl]pyrrolidine-2-carbonitrile]: the IC50 at recombinant human DPP7 is 6560 nM; on Recombinant human FAP [2] it was 3.2 nM; on DPP4, 4830 nM.
